Values of other authors in US20080292591A1, “Tumor mouse models using lentiviral vectors” (The Salk Institute for Biological Studies, priority 2007, published 2008).

Tests used:
xenografts of tumors = conditions: animal models bearing xenografts of tumors

In the case of `Cc1cc(Nc2cc(N3CCN(C)CC3)nc(Sc3ccc(NC(=O)C4CC4)cc3)n2)n[nH]1` [VX-680], the “antiproliferative activity in vitro” value (a variety of cell lines) is listed as “broad and potent antiproliferative activity” and the “antitumor activity in animal models” value (xenografts of tumors) is listed as “robust antitumor activity”.
